The values below are quoted from earlier work in US20110092560A1, “TOPICAL COMPOSITION FOR CONTROLLING ECTOPARASITES IN DOGS AND CATS” (CEVA SANTE ANIMALE SA, priority 2008, published 2011).

For series [1] the following is noted: in vivo.
For series [2] the following is noted: mouse, in vivo, po.

Consider `N#Cc1nn(-c2c(Cl)cc(C(F)(F)F)cc2Cl)c(N)c1[S+]([O-])C(F)(F)F` (centres unmarked) [fipronil, Fipronil], for which the “carcinogenic, teratogenic or mutagenic potential” value in series [1] is on record as “not carcinogenic, teratogenic or mutagenic”. Besides, in series [2], the “metabolites eliminated in the faeces” value is given as 45-75%; the “metabolites eliminated in the urine” value was 5-25%; the plasma half-life was 149 to 200 h; the “tissues in which residues were found” value was “fat, the adrenal glands, pancreas, skin, liver, kidney, and muscle”.
